Data on 16 compounds can be found in patent US12370192B2, “Azole-fused pyridazin-3(2H)-one derivatives” (TAKEDA PHARMACEUTICAL COMPANY LIMITED, priority 2019, dated 2025).

In assay [1] the target is T1, human GPR139 receptor (Homo sapiens, UniProt Q6DWJ6).
T1 construct: expressed in transfected cells; host or cells: T-REx-CHO (Thermo Fisher Scientific), doxycycline-induced
T1 sequence (Q6DWJ6 1-353): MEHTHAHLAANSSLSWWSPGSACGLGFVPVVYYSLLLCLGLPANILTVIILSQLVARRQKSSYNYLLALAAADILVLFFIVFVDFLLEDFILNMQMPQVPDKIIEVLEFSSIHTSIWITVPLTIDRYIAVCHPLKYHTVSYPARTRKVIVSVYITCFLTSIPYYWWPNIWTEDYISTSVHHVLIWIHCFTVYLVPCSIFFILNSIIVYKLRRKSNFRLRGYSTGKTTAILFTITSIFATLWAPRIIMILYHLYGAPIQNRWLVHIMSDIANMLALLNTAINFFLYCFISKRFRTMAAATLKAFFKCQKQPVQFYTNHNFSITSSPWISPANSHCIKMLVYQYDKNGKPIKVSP
As to the kind of experiment: Measurement of GPR139 Activation Via Calcium Signaling (FLIPR, T-REx-CHO cells). Particulars: T-REx-CHO cells stably expressing human GPR139, 11-point dose response, 10 μM maximum concentration, read-out: GPR139 Potency (pEC50) (converted). The assay is classed as cell-based. The method, then: Measurement of GPR139 Activation Via Calcium Signaling
This cell-based assay measures the ability of compounds to activate GPR139 in stably transfected T-REx™-CHO cells. T-REx™-CHO cells (Thermo Fisher Scientific®) are stably expressed with human GPR139 receptor, whose expression is controlled by a tetracycline-inducible element. The cells are cultured in medium containing F-12K nutrient mixture-Kaighn's modification, TripleLE™ Express (1×)-phenol red, Dulbecco's phosphate-buffered saline (1×), 10% tetracycline-free FBS, Blasticidin S HCl (10 μg/mL) and Hygromycin B (200 μg/mL). The cells are introduced into the wells of a 384-well black clear bottom plate (Costar®) at 10,000 cells/well. GPR139 receptor expression is induced with 2 μg/mL doxycycline (Sigma D9891). The plate is allowed to stand at room temperature for 10-30 minutes and then incubated at 37° C. and 5% CO2 for 17 hours prior to assay.
Culture media is removed from cells and 45 μL of 1× calcium dye (2.5 mM) is added to each well and incubated at 37° C. and 5% CO2 for 40 minutes. The plate is removed from the incubator and allowed to stand at RT for 20 minutes without a plate cover prior to measurement of calcium signaling. The calcium dye is prepared by adding 10 mL of assay buffer (Hank's Balanced Salt Solution (1×), 1 mM HEPES at pH 7.4) to one vial of calcium dye (FLIPR® Calcium 5 Assay Kit; Molecular Devices) at room temperature, vortexing the mixture until homogenous, and transferring the dye to a 250 mL flask using 10 mL of assay, buffer to rinse the vial. The dye is subsequently transferred to a conical flask, which is filled to the 200 mL mark with assay buffer, and 1 mL of […] probenecid solution (142.68 mg/mL in 1M NaOH aq) is added.
Example compounds suspended in DMSO are received from compound management in microtiter plates (0.25 μL/well) and are diluted in assay buffer (25 μL). Following incubation of the cell plate, the Example compounds are added to the cells (11-point dose response, 10 μM maximum concentration) using a FLIPR® Tetra system (Molecular Devices) and fluorescence is measured continuously for 1 minute. EC50 curves are generated with a four-parameter logistic equation using GraphPad Prism® 6, and activation of GPR139 for each example compound is reported as pEC50.

Assay [2] has as its target T1, human GPR139 receptor. As to the kind of experiment: GPR139 Competition Binding (membrane-based, tritium-labeled ligand). Particulars: T-REx-CHO membranes with human GPR139; 6.5 nM tritium-labeled ligand; 11-point curve, 30 μM maximum concentration; read-out: GPR139 Binding Affinity (pKi) (converted). How it is done:
OPR139 Competition Binding
This membrane-based assay measures the ability of compounds to competitively bind GPR139 in stably transfected TREx™-CHO membranes. To prepare the membranes, T-REx™-CHO (Thermo Fisher Scientific®) cells are stably expressed with human GPR139 receptor, whose expression is controlled by a tetracycline-inducible element. The cells are cultured in medium containing F-12K nutrient mixture-Kaighn's modification, 10% tetracycline-free FBS, Blasticidin S HCl (10 μg/mL) and Hygromycin B (200 μg/mL). GPR139 receptor expression is induced for 18 hours with 2 μg/mL doxycycline (Sigma D9891) in growth media. After addition of doxycycline, cells are harvested in PBS and pelleted by centrifugation for 5 minutes at 200×G. Liquid is aspirated off and cells are resuspended in ice cold lysis buffer (20 mM HEPES/5 mM EDTA pH 7.4/1× Roche® protease inhibitor). Samples are vortexed until homogenous and then placed on ice and homogenized using a Dounce homogenizer at 50% power (3 cycles, 10 strokes per cycle). Lysate is centrifuged at 4° C. for 10 minutes in a tabletop Sorvall® centrifuge at 2000×G. The supernatant is recovered and centrifuged in a Sorvall® ultracentrifuge at 35,000 rpm for 30 minutes at 4° C. The supernatant is discarded, and the remaining pellet resuspended in lysis buffer (20 mM HEPES/0.1 mM EGTA/Roche® protease inhibitor). Membrane protein concentration is determined using Thermo Fisher® BCA quantification kit and is aliquoted into microtubes. Tubes are snap frozen in liquid nitrogen and stored at −80° C. Prior to use, the membranes are removed from cold storage, thawed to room temperature, vortexed until homogenous and diluted in assay buffer (20 mM HEPES pH 7.3, 5 mM MgCl2, 1 mM CaCl2), 1× Thermo Scientific® Halt™ protease inhibitor (78429)).
The assay is run in 96-well, polypropylene, v-bottom plates (Greiner Bio-One® 651201). Test compound in DMSO is added to the wells of each plate (11-point dose response curve, 30 μM maximum concentration, 3-fold serial dilution). A fixed amount of tritium-labeled ligand, (S)-2-(2,3-dimethyl-7-oxothieno[2,3-d]pyridazin-6(7H)-yl)-N-(1-(4-methoxyphenyl-2-t)propan-2-yl)acetamide (Quotient Bioresearch) in assay buffer (6.5 nM assay concentration) is added to each well of the assay plate, which is then agitated on a plate shaker for 30 seconds. Next, a fixed amount of membranes in assay buffer (2 μg membranes) is added to each well of the assay plate, which is then spun for 30 seconds at 300 rpm in a tabletop Eppendorf centrifuge, and then incubated at room temperature for 20 minutes. Using a Tomtec harvester, the contents of the assay plate are transferred to Filtermat A (PerkinElmer® No. 1450-421) which prior to use is pre-soaked in 0.5% PEI (Sigma P3143) for 3 hours and dried at room temperature overnight. Following transfer, the Filtermat is washed 5 times with cold wash buffer (20 mM HEPES pH 7.3, 100 mM NaCl). The Filtermat is dried using a microwave oven and placed in a sample bag (PerkinElmer® No. 1450-432) with a scintillator sheet (PerkinElmer® No. 1450-411). The scintillator sheet is melted to the Filtermat using a heat block set to 65° C., placed in a MicroBeta® cartridge and read using a MicroBeta® scintillation counter. Binding curves are generated with a four-parameter logistic equation using GraphPad Prism® 6 and the inhibition constant Ki is reported as pKi.

As for `C[C@H](NC(=O)Cn1ncc2c(C3CC3)nn(C)c2c1=O)c1ccc(OC(F)(F)F)cc1` [Example 143, (S)-2-(3-cyclopropyl-1-methyl-7-oxo-1,7-dihydro-6H-pyrazolo[3,4-d]pyridazin-6-yl)-N-(1-(4-(trifluoromethoxy)phenyl)ethyl)acetamide], the EC50 on human GPR139 receptor [1] is 0.117 µM. In addition, the Ki at human GPR139 receptor [2] was 0.178 µM. The corresponding values for `Cc1nn(C(C)C)c2c(C)nn(CC(=O)N[C@@H](C)c3ccc(C(F)(F)F)cc3)c(=O)c12` [Example 56, (S)-2-(1-isopropyl-3,7-dimethyl-4-oxo-1,4-dihydro-5H-pyrazolo[3,4-d]pyridazin-5-yl)-N-(1-(4-(trifluoromethyl)phenyl)ethyl)acetamide] are 0.214 µM and 0.479 µM. The matching figures for `Cc1ccc([C@H](C)NC(=O)Cn2nc(C)c3c(ncn3C)c2=O)cc1` [Example 29, (S)-2-(1,7-dimethyl-4-oxo-1,4-dihydro-5H-imidazo[4,5-d]pyridazin-5-yl)-N-(1-(p-tolyl)ethyl)acetamide]: 0.513 µM and 30.2 µM. The matching figures for `Cc1nn(CC(=O)N[C@@H](C)c2cccc(F)c2)c(=O)c2c1c(C)nn2C` [Example 154, (S)—N-(1-(3-fluorophenyl)ethyl)-2-(1,3,4-trimethyl-7-oxo-1,7-dihydro-6H-pyrazolo[3,4-d]pyridazin-6-yl)acetamide]: 0.0214 µM and 0.49 µM. Take `Cc1ccc([C@H](C)NC(=O)Cn2ncc3c(C)nn(C)c3c2=O)cc1` [Example 27, (S)-2-(1,3-dimethyl-7-oxo-1,7-dihydro-6H-pyrazolo[3,4-d]pyridazin-6-yl)-N-(1-(p-tolyl)ethyl)acetamide]: the EC50 on human GPR139 receptor [1] was 0.24 µM. Also, on human GPR139 receptor [2], the Ki was 0.219 µM. Consider `Cc1nn(C2CC2)c2cnn(CC(=O)N[C@@H](C)c3c(F)cccc3Cl)c(=O)c12` [Example 136, (S)—N-(1-(2-chloro-6-fluorophenyl)ethyl)-2-(1-cyclopropyl-3-methyl-4-oxo-1,4-dihydro-5H-pyrazolo[3,4-d]pyridazin-5-yl)acetamide], for which the EC50 at human GPR139 receptor [1] is 0.0912 µM. Besides, on human GPR139 receptor [2], the Ki was 0.0813 µM. The matching figures for `Cc1ccc([C@H](C)NC(=O)Cn2ncc3c(c(C)nn3C(C)C)c2=O)c(F)c1` [Example 92, (S)—N-(1-(2-fluoro-4-methylphenyl)ethyl)-2-(1-isopropyl-3-methyl-4-oxo-1,4-dihydro-5H-pyrazolo[3,4-d]pyridazin-5-yl)acetamide]: 0.0575 µM and 0.1 µM. Take `C[C@H](NC(=O)Cn1ncc2c(c(C3CC3)nn2C)c1=O)c1ccc(C(F)(F)F)cc1` [Example 115, (S)-2-(3-cyclopropyl-1-methyl-4-oxo-1,4-dihydro-5H-pyrazolo[3,4-d]pyridazin-5-yl)-N-(1-(4-(trifluoromethyl)phenyl)ethyl)acetamide]: the EC50 on human GPR139 receptor [1] is 0.224 µM. Moreover, the Ki at human GPR139 receptor [2] is 0.0589 µM. For the compound `Cc1nn(C2CC2)c2cnn(CC(=O)N[C@H](c3ccccc3)C3CC3)c(=O)c12` [Example 173, (S)—N-(cyclopropyl(phenyl)methyl)-2-(1-cyclopropyl-3-methyl-4-oxo-1,4-dihydro-5H-pyrazolo[3,4-d]pyridazin-5-yl)acetamide], at human GPR139 receptor [2], the Ki is 30.2 µM. In the case of `Cc1ccc([C@H](C)NC(=O)Cn2ncc3c(C4CC4)cn(C)c3c2=O)cc1` [Example 158, (S)-2-(3-cyclopropyl-1-methyl-7-oxo-1,7-dihydro-6H-pyrrolo[2,3-d]pyridazin-6-yl)-N-(1-(p-tolyl)ethyl)acetamide], the EC50 at human GPR139 receptor [1] was 0.0575 µM. Besides, the Ki on human GPR139 receptor [2] is 0.0479 µM.

Consider `Cc1ccc([C@H](C)NC(=O)Cn2nc(C)c3c(cnn3C)c2=O)c(F)c1` [Example 82], for which the EC50 on human GPR139 receptor [1] was 0.0417 µM. For the same compound, the Ki on human GPR139 receptor [2] was 0.55 µM. The corresponding values for `Cc1ccc([C@H](C)NC(=O)Cn2nc(C)c3c(C)nn(C)c3c2=O)cc1` [Example 20, (S)—N-(1-(p-tolyl)ethyl)-2-(1,3,4-trimethyl-7-oxo-1,7-dihydro-6H-pyrazolo[3,4-d]pyridazin-6-yl)acetamide] are 0.0417 µM and 0.178 µM. With `Cc1nn(C)c2c(C)nn(CC(=O)N[C@@H](C)c3ccc(OC(F)(F)F)cc3)c(=O)c12` [Example 112, (S)—N-(1-(4-(trifluoromethoxy)phenyl)ethyl)-2-(1,3,7-trimethyl-4-oxo-1,4-dihydro-5H-pyrazolo[3,4-d]pyridazin-5-yl)acetamide], the EC50 on human GPR139 receptor [1] is 0.617 µM. In addition, the Ki at human GPR139 receptor [2] is 0.263 µM. The corresponding values for `Cc1ccc([C@H](C)NC(=O)Cn2ncc3ccn(C)c3c2=O)cc1` [Example 162, (S)-2-(1-methyl-7-oxo-1,7-dihydro-6H-pyrrolo[2,3-d]pyridazin-6-yl)-N-(1-(p-tolyl)ethyl)acetamide] are 0.0132 µM and 0.195 µM. Take `Cc1ccc([C@H](C)NC(=O)Cn2nc(C)c3c(cnn3C)c2=O)cc1` [Example 74, (S)-2-(1,7-dimethyl-4-oxo-1,4-dihydro-5H-pyrazolo[3,4-d]pyridazin-5-yl)-N-(1-(p-tolyl)ethyl)acetamide]: on human GPR139 receptor [1], the EC50 is 0.0933 µM. Moreover, the Ki at human GPR139 receptor [2] is 2.45 µM. Regarding `C[C@H](NC(=O)Cn1ncc2ccn(C)c2c1=O)c1ccc(C(F)(F)F)cc1` [Example 164, (S)-2-(1-methyl-7-oxo-1,7-dihydro-6H-pyrrolo[2,3-d]pyridazin-6-yl)-N-(1-(4-(trifluoromethyl)phenyl)ethyl)acetamide], on human GPR139 receptor [2], the Ki is 0.2 µM.
